Data as given in patent publication US10342786B2, “P38 kinase inhibitors reduce DUX4 and downstream gene expression for the treatment of FSHD” (Fulcrum Therapeutics, Inc., priority 2017, dated 2019).

Tested on: ZSCAN4, TRIM43, LEUTX, KHDC1L
Assay: DUX4-regulated downstream genes by real time PCR in FSHD myotubes
Format: cell-based, human
Settings: 1 μM ASO; FSHD myotubes vs DMSO
Method: For qPCR, dilute 1:10 and use 2 μL for a 10 μL 1-step RT-qPCR reaction. For detection of GAPDH, RPLPO, TBP, MYOG, FRG1, MYH3, ACTN2, etc.). Per 10 μL reaction: RNA (1:10 dilution lysate) 2 μL, Fast Advanced Taqman Master Mix (2×) 5 μL, RT enzyme mix (40×) 0.25 μL, Taqman probe set (20×) 0.5 μL, H2O 2.25 μL. The following reaction protocol was run on the QuantStudio 7: 48° C. for 15 min, 50° C. for 2 min, 95° C. for 30 sec, 40×, 95° C. for 5 sec, 60° C. for 30 sec, then plates were read as specified by the manufacturer (Thermo). For 1-step RT-Preamplification used for detection of DUX4 downstream genes, i.e. MBD3L2, ZSCAN4, LEUTX, TRIM43, KHDC1L. POL2RA-VIC was used as Endogenous control). Per 10 μL reaction: RNA (1:10 dilution lysate) 2.25 μL, Taqman Pre-Amp Master Mix (2×) 5 μL, RT enzyme mix (40×) 0.25 μL, Taqman probe set (0.2×)*2.5 μL, * Pooling the TaqMan Assays: equal volumes of each 20× TaqMan® Gene Expression Assay, up to 100 assays were combined. For example, to pool 50 TaqMan assays, 10 μL of each assay were combined in a microcentrifuge tube. The pooled TaqMan assays were diluted using 1×TE buffer so that each assay is at a final concentration of 0.2×. For the above example, add 500 μL of 1×TE buffer to the pooled TaqMan assays for a total final volume of 1 mL. The QuantStudio7 protocol was used 48° C. 15 min, 95° C. 10 min, 10 cycles: 95° C. 15 sec, 60° C. 4 min, 4° C. infinite. Samples were then diluted to 50 μL and continue with the qPCR step. Per 10 μL reaction: Preamp dilution 2 μL, Fast Advanced Taqman Master Mix (2×) 5 μL, Taqman probe set (20×) 0.5 μL, H2O 2.5 μL. When multiplexing the volume was adjusted to 10 μL total). The following program was run on the QuantStudio7: 50° C. for 2 min, 95° C. for 30 sec, 40×, 95° C. for 5 sec, 60° C. for 30 sec, plates were read as per the manufacturers specifications (Thermo).
Wild type myotubes were treated with DMSO control vehicle, and mature patient-derived FSHD myotubes that express DUX4 protein were treated with DMSO vehicle control or 1 μM of a DUX4 sequence-directed antisense oligonucleotide (ASO; FTX-2) purchased from Exiqon. After treatment, the myotubes were lysed in 19.5 μL of Roche Real Time Ready Lysis Buffer, 0.25 μL of DNAsel (Ambion, AM2222), 0.25 μL of Protector RNase Inhibitor (Roche, 3335402001), and the RNA was collected in an RNeasy Micro Kit Master Mix. Expression levels of DUX4-regulated downstream genes (ZSCAN4, TRIM43, MBD3L2, LEUTX, and KHDC1L) was determined by real time PCR (ThermoFisher Scientific, 4484262), ZSCAN4 Taqman Assay (ThermoFisher Scientific, Hs00537549 ml, FAM-MGB), MYOG Taqman Assay (ThermoFisher Scientific, Hs01072232_ml, JUN-QSY), RPLPO Taqman Assay (ThermoFisher Scientific, Hs99999902_ml), and/or LEUTX Taqman Assay (ThermoFisher Scientific, Hs00418470_ml). […]

FTX-2: DUX4 sequence-directed antisense oligonucleotide purchased from Exiqon, CAGCGTCGGAAGGTGG (SEQ ID NO: 1) (listed as DNA, chemistry not given here)
reduced amounts: KHDC1L expression | LEUTX expression | TRIM43 expression | ZSCAN4 expression
